Laboratory results from publication PMC5553068 (Bioorganic & medicinal chemistry, 2017).

What was measured:
human renin = biological target: T1, human renin (Homo sapiens, UniProt P00797); conditions: for Ligand Efficiency: Table 3
T1 sequence (P00797 67-406): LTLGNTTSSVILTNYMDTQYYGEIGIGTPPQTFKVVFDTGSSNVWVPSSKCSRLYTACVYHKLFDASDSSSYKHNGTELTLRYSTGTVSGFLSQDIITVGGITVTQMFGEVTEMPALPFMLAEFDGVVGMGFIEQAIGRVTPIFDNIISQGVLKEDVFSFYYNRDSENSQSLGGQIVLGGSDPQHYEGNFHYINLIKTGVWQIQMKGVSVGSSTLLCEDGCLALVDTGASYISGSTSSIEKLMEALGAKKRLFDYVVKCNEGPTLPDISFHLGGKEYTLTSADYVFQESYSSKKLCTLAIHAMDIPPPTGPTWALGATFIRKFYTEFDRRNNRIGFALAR

[1] = Rat in vivo pharmacokinetic studies; design: species or system Sprague Dawley rats; conditions: for AUC: 10 mg/kg po dose, HCl salts, vehicle D5W, mean n = 3; for clearance / bioavailability: Sprague-Dawley, plasma; for clearance: iv, 1 mg/kg; for bioavailability: po, 10 mg/kg
[2] = Table 7, literature comparators, no reference given; cited from earlier work
renin = conditions: ligand of the 2IKO X-ray structure; cited from earlier work

Question: For CCc1nc(N)cc(C)c1-c1ccc2c(c1)N(CCCOC)CCC2 [Compound 13, 6-Ethyl-5-(1-(3-methoxypropyl)-1,2,3,4-tetrahydroquinolin-7-yl)-4-methylpyridin-2-amine], which “Ligand Efficiency” value (human renin) is on record?
Answer: Its value is 0.34.

Question: With CCc1nc(N)cc(C)c1-c1cccc2c(C)c[nH]c12 [Compound 20, 6-Ethyl-4-methyl-5-(3-methyl-1H-indol-7-yl)pyridin-2-amine] as the compound, how does the “fold improvement in activity” value (human renin; going from 17 to 19 and then to 20) read?
Answer: The value was 36 fold.

Question: Which “Ligand Efficiency” value (human renin) does the source give for COCCCN1CCCc2ccc(-c3c(C)cc(N)nc3C)cc21 [Compound 12, 5-(1-(3-Methoxypropyl)-1,2,3,4-tetrahydroquinolin-7-yl)-4,6-dimethylpyridin-2-amine] here?
Answer: The value was 0.27.

Question: For CCc1nc(N)nc(N)c1-c1ccc2c(c1)N(CCCOC)CCC2 [Compound 6c, reference compound], which “Ligand Efficiency” value (human renin) is on record?
Answer: The value was 0.34.

Question: What does the source list for CCc1nc(N)cc(OC)c1-c1ccc2c(c1)N(CCNC(C)=O)C(=O)C(C)(C)O2 [Compound 33, N-(2-(6-(6-Amino-2-ethyl-4-methoxypyridin-3-yl)-2,2-dimethyl-3-oxo-2H-benzo[b][1,4]oxazin-4(3H)-yl)ethyl)acetamide]?
Answer: AUC [1]: 1493 ngh/mL; clearance [1]: 56 mL/min/kg; bioavailability [1]: 39%

Question: For CCc1nc(N)cc(C)c1-c1ccc2c(c1)N(CCNC(C)=O)C(=O)C(C)(C)O2 [Compound 32, N-(2-(6-(6-Amino-2-ethyl-4-methylpyridin-3-yl)-2,2-dimethyl-3-oxo-2H-benzo[b][1,4]oxazin-4(3H)-yl)ethyl)acetamide], which AUC [1] is on record?
Answer: The AUC was 1810 ngh/mL.

Question: What about the clearance [1] of the same compound?
Answer: The clearance was 66 mL/min/kg.

Question: And the bioavailability [1]?
Answer: The bioavailability was 58%.

Question: With CCc1nc(N)cc(C)c1-c1ccc2c(c1)N(CCCOC)C(=O)C(C)(C)O2 [Compound 34, 6-(6-Amino-2-ethyl-4-methylpyridin-3-yl)-4-(3-methoxypropyl)-2,2-dimethyl-2H-benzo[b][1,4]oxazin-3(4H)-one] as the compound, how does the “fold improvement in affinity vs 7b” value (human renin; 6-ethyl-2-aminopyridine head group vs pyrimidine 7b, Table 5) read?
Answer: The value was 2- to 3 fold.

Question: For CCc1nc(N)cc(OC)c1-c1ccc2c(c1)N(CCCOC)CCC2 [Compound 15, 6-Ethyl-4-methoxy-5-(1-(3-methoxypropyl)-1,2,3,4-tetrahydroquinolin-7-yl)pyridin-2-amine], which “Ligand Efficiency” value (human renin) is on record?
Answer: The value was 0.33.

Question: For CCc1nc(N)nc(N)c1-c1ccc2c(c1)N(CCCOC)C(=O)C(C)(c1cc(F)cc(F)c1)O2 (centres unmarked) [Compound 7c], which “%F (rat)” value [2] is on record?
Answer: Its value is 0.4%.

Question: For CCc1nc(N)nc(N)c1-c1ccc(NCc2cc(F)cc(F)c2)cc1 [Compound 8], which IC50 (renin) is on record?
Answer: Its IC50 is 4 µM.

Question: With CCc1nc(N)cc(C)c1-c1ccc(F)c2c(C)c(CCOC)[nH]c12 [Compound 27, 6-Ethyl-5-(4-fluoro-2-(2-methoxyethyl)-3-methyl-1H-indol-7-yl)-4-methylpyridin-2-amine] as the compound, how does the AUC [1] read?
Answer: Its AUC is 473 ngh/mL.

Question: And the clearance [1]?
Answer: The clearance was 68 mL/min/kg.

Question: What about the bioavailability [1] of the same compound?
Answer: Its bioavailability is 20%.
